Toxic doses and inconclusive results are not listed.
Test system: CD2F1 mice, L1210 leukemia ip, survival T/C
Assay: NCI In Vivo Anticancer Drug Screen. Data for tumor model L1210 Leukemia (intraperitoneal) in CD2F1 (CDF1) mice
Conditions: endpoint: mean survival time, higher = longer survival
In short: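 Ratio T/C, where T is the treated-group value and C the vehicle-dosed control value, from mice implanted with a transplantable tumor.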

[1] = dose: 6.25 mg/kg/injection, schedule: Q01DX009 (ip), vehicle: saline with Tween-80
[2] = dose: 12.5 mg/kg/injection, schedule: Q01DX009 (ip), vehicle: saline with Tween-80
[3] = dose: 25.0 mg/kg/injection, schedule: Q01DX009 (ip), vehicle: saline with Tween-80
[4] = dose: 100.0 mg/kg/injection, schedule: Q04DX002 (ip), vehicle: saline with Tween-80
[5] = dose: 200.0 mg/kg/injection, schedule: Q04DX002 (ip), vehicle: saline with Tween-80
[6] = dose: 400.0 mg/kg/injection, schedule: Q04DX002 (ip), vehicle: saline with Tween-80
[7] = dose: 50.0 mg/kg/injection, schedule: Q01DX009 (ip), vehicle: saline with Tween-80
[8] = dose: 100.0 mg/kg/injection, schedule: Q01DX009 (ip), vehicle: saline with Tween-80
[9] = dose: 200.0 mg/kg/injection, schedule: Q01DX009 (ip), vehicle: saline with Tween-80
[10] = dose: 5.0 mg/kg/injection, schedule: Q04DX003 (ip), vehicle: saline
[11] = dose: 100.0 mg/kg/injection, schedule: Q01DX001 (ip), vehicle: saline
[12] = dose: 200.0 mg/kg/injection, schedule: Q01DX001 (ip), vehicle: saline
[13] = dose: 400.0 mg/kg/injection, schedule: Q01DX001 (ip), vehicle: saline
[14] = dose: 100.0 mg/kg/injection, schedule: Q04DX003 (ip), vehicle: saline with Tween-80
[15] = dose: 200.0 mg/kg/injection, schedule: Q04DX003 (ip), vehicle: saline with Tween-80
[16] = dose: 400.0 mg/kg/injection, schedule: Q01DX009 (ip), vehicle: saline with Tween-80
[17] = dose: 400.0 mg/kg/injection, schedule: Q04DX003 (ip), vehicle: saline with Tween-80
[18] = dose: 100.0 mg/kg/injection, schedule: Q01DX001 (ip), vehicle: Klucel (hydroxypropylcellulose) (HPC)
[19] = dose: 200.0 mg/kg/injection, schedule: Q01DX001 (ip), vehicle: Klucel (hydroxypropylcellulose) (HPC)
[20] = dose: 400.0 mg/kg/injection, schedule: Q01DX001 (ip), vehicle: Klucel (hydroxypropylcellulose) (HPC)
[21] = dose: 100.0 mg/kg/injection, schedule: Q01DX009 (ip), vehicle: saline
[22] = dose: 100.0 mg/kg/injection, schedule: Q04DX003 (ip), vehicle: saline
[23] = dose: 200.0 mg/kg/injection, schedule: Q04DX003 (ip), vehicle: saline
[24] = dose: 400.0 mg/kg/injection, schedule: Q04DX003 (ip), vehicle: saline

For `Nc1ncnc2c1ncn2[C@@H](C=O)O[C@@H](C=O)CO`, the T/C (dose: 3.12 mg/kg/injection, schedule: Q01DX009 (ip), vehicle: saline with Tween-80) was 164 % of control, the T/C (dose: 3.13 mg/kg/injection, schedule: Q01DX005 (ip), vehicle: saline with Tween-80) was 152 % of control and the T/C (dose: 6.25 mg/kg/injection, schedule: Q01DX005 (ip), vehicle: saline with Tween-80) was 180 % of control. For the same compound, the T/C [1] was 176 % of control, the T/C (dose: 12.5 mg/kg/injection, schedule: Q01DX005 (ip), vehicle: other) was 165 % of control and the T/C (dose: 12.5 mg/kg/injection, schedule: Q01DX005 (ip), vehicle: saline with Tween-80) was 153 % of control. For the same compound, the T/C [2] was 185 % of control, the T/C (dose: 25.0 mg/kg/injection, schedule: Q01DX005 (ip), vehicle: other) was 172 % of control and the T/C [3] was 89 % of control.

With `COc1ccc([N+](=O)[O-])cc1NC(=O)Nc1ccccc1C` the T/C [4] was 92 % of control, the T/C [5] was 88 % of control and the T/C [6] was 95 % of control.

For `Cc1ccc(S(=O)(=O)OC2CC3CC2C2C4C=CC(C4)C32)cc1` (centres undefined), the T/C [7] was 101 % of control, the T/C [8] was 93 % of control and the T/C [9] was 101 % of control.

In the case of `C[N+](C)(C)C`, the T/C (dose: 5.0 mg/kg/injection, schedule: Q01DX001 (ip), vehicle: saline) is reported as 98 % of control, the T/C (dose: 5.0 mg/kg/injection, schedule: Q01DX009 (ip), vehicle: saline sonified) is reported as 95 % of control and the T/C [10] is reported as 100 % of control. The T/C [1] was 96 % of control, the T/C (dose: 10.0 mg/kg/injection, schedule: Q01DX009 (ip), vehicle: saline sonified) was 87 % of control and the T/C (dose: 20.0 mg/kg/injection, schedule: Q01DX001 (ip), vehicle: saline) was 98 % of control.

For `O=c1[nH]c2c(c(=O)n1-c1ccccc1)CCO2`, the T/C [11] was 98 % of control, the T/C [12] was 91 % of control and the T/C [13] was 98 % of control.

`CCCCC/C=C/C/C=C\CCCCCCCC1=C(O)C(=O)C(OC)=C(OC)C1=O` was tested, and the T/C [1] was 120 % of control, the T/C [2] was 106 % of control and the T/C [3] was 98 % of control. The T/C [7] was 102 % of control, the T/C [8] was 102 % of control and the T/C [9] was 106 % of control.

For `COC(OC)C1C2C3C=CC(C4C(=O)OC(=O)C34)C12` (centres undefined), the T/C [8] was 98 % of control, the T/C [14] was 97 % of control and the T/C [9] was 93 % of control. The T/C [15] was 110 % of control, the T/C [16] was 95 % of control and the T/C [17] was 103 % of control.

`O=C(O)CCc1cc([N+](=O)[O-])c(O)c([N+](=O)[O-])c1` was tested, and the T/C [8] was 94 % of control and the T/C [9] was 89 % of control.

For `O=C1c2ccccc2C(=O)c2cc(S(=O)(=O)O)ccc21`, the T/C [18] was 104 % of control, the T/C [8] was 98 % of control and the T/C [19] was 96 % of control. The T/C [9] was 90 % of control, the T/C [20] was 104 % of control and the T/C [16] was 90 % of control.

With `CN(C)C(=O)Sc1c(S(=O)(=O)F)ccc(Cl)c1Cl` the T/C [4] was 96 % of control, the T/C [5] was 96 % of control and the T/C [6] was 100 % of control.

With `CCCCCCCCCCCCOP(OCCCCCCCCCCCC)OCCCCCCCCCCCC` the T/C (dose: 100.0 mg/kg/injection, schedule: Q04DX003 (ip), vehicle: alcohol) was 102 % of control, the T/C (dose: 200.0 mg/kg/injection, schedule: Q04DX003 (ip), vehicle: alcohol) was 96 % of control and the T/C (dose: 400.0 mg/kg/injection, schedule: Q04DX003 (ip), vehicle: alcohol) was 98 % of control.

`CCCCCCCCCCCCCCNC(=O)C[N+](C)(C)Cc1ccccc1` was tested, and the T/C (dose: 0.25 mg/kg/injection, schedule: Q01DX009 (ip), vehicle: saline sonified) was 101 % of control, the T/C (dose: 0.5 mg/kg/injection, schedule: Q01DX009 (ip), vehicle: saline sonified) was 95 % of control and the T/C (dose: 1.0 mg/kg/injection, schedule: Q01DX009 (ip), vehicle: saline sonified) was 95 % of control. The T/C [10] was 96 % of control and the T/C (dose: 10.0 mg/kg/injection, schedule: Q04DX003 (ip), vehicle: saline) was 96 % of control.

For `O=C(O)c1cc(Cl)[nH]c(=O)c1`, the T/C [14] was 91 % of control, the T/C [15] was 91 % of control and the T/C [17] was 91 % of control.

`S=C(S)NNc1ccccc1` was tested, and the T/C [15] was 91 % of control.

For `CN(C)C(=S)SCc1ccccc1`, the T/C (dose: 100.0 mg/kg/injection, schedule: Q04DX003 (ip), vehicle: other) was 111 % of control, the T/C (dose: 200.0 mg/kg/injection, schedule: Q04DX003 (ip), vehicle: other) was 103 % of control and the T/C (dose: 400.0 mg/kg/injection, schedule: Q04DX003 (ip), vehicle: other) was 112 % of control.

`O=S(=O)(O)N=Nc1ccc(OCc2ccccc2)cc1` was tested, and the T/C [11] was 100 % of control, the T/C [12] was 100 % of control and the T/C [13] was 97 % of control.

`Cc1cccc(NC(=O)Nc2ccc(Oc3ccccc3Cl)c(S(=O)(=O)O)c2)c1` was tested, and the T/C (dose: 50.0 mg/kg/injection, schedule: Q01DX009 (ip), vehicle: saline) was 101 % of control, the T/C [21] was 95 % of control and the T/C [22] was 95 % of control. The T/C [23] was 95 % of control.

For `C/C=C/C[P+](Cc1ccccc1)(c1ccccc1)c1ccccc1`, the T/C (dose: 0.39 mg/kg/injection, schedule: Q01DX009 (ip), vehicle: saline) was 97 % of control, the T/C (dose: 0.78 mg/kg/injection, schedule: Q01DX009 (ip), vehicle: saline) was 96 % of control and the T/C (dose: 1.56 mg/kg/injection, schedule: Q01DX009 (ip), vehicle: saline) was 102 % of control. For the same compound, the T/C (dose: 3.13 mg/kg/injection, schedule: Q01DX009 (ip), vehicle: saline) was 103 % of control.

`CC(N)(CO)C(=O)O` (centres undefined) was tested, and the T/C [22] was 108 % of control, the T/C [23] was 113 % of control and the T/C [24] was 103 % of control.

`O=P(O)(O)OCCCl` was tested, and the T/C [21] was 94 % of control, the T/C [22] was 100 % of control and the T/C (dose: 200.0 mg/kg/injection, schedule: Q01DX009 (ip), vehicle: saline) was 96 % of control. The T/C [23] was 94 % of control, the T/C (dose: 400.0 mg/kg/injection, schedule: Q01DX009 (ip), vehicle: saline) was 94 % of control and the T/C [24] was 94 % of control.

With `Cn1c(=O)[nH]c2c(nc(-c3ccccc3)n2Cc2ccccc2)c1=O` the T/C (dose: 7.8 mg/kg/injection, schedule: Q01DX005 (ip), vehicle: other) was 95 % of control, the T/C (dose: 15.6 mg/kg/injection, schedule: Q01DX005 (ip), vehicle: other) was 95 % of control and the T/C (dose: 31.3 mg/kg/injection, schedule: Q01DX005 (ip), vehicle: other) was 91 % of control. For the same compound, the T/C (dose: 62.5 mg/kg/injection, schedule: Q01DX005 (ip), vehicle: other) was 91 % of control and the T/C (dose: 125.0 mg/kg/injection, schedule: Q01DX005 (ip), vehicle: other) was 95 % of control.

For `O=C1NCCN1c1ccc([N+](=O)[O-])cc1`, the T/C (dose: 12.5 mg/kg/injection, schedule: Q01DX009 (ip), vehicle: other) was 89 % of control, the T/C (dose: 25.0 mg/kg/injection, schedule: Q01DX009 (ip), vehicle: other) was 103 % of control and the T/C (dose: 50.0 mg/kg/injection, schedule: Q01DX009 (ip), vehicle: other) was 94 % of control. For the same compound, the T/C (dose: 100.0 mg/kg/injection, schedule: Q01DX009 (ip), vehicle: other) was 96 % of control and the T/C (dose: 200.0 mg/kg/injection, schedule: Q01DX009 (ip), vehicle: other) was 96 % of control.

With `CN1C(=O)[N+]2(CCCCC2)N=C1[O-]` the T/C [8] was 96 % of control, the T/C [22] was 91 % of control and the T/C [9] was 102 % of control. For the same compound, the T/C [23] was 97 % of control, the T/C [16] was 106 % of control and the T/C [24] was 95 % of control.

In the case of `CN(C)C(=O)Nc1ccc(F)cc1`, the T/C [4] is reported as 97 % of control, the T/C [5] is reported as 102 % of control and the T/C [6] is reported as 91 % of control.

With `CC(=O)Nc1cccc(/C=C/C=C/c2cccc([N+](=O)[O-])c2)c1` the T/C [18] was 103 % of control, the T/C [19] was 97 % of control and the T/C [20] was 90 % of control.

From PubChem BioAssay AID256 (DTP/NCI, 2004)
